Measurements reported in patent publication US11517575B2, “Use of minaprine to reduce tumor growth” (Institut Gustave-Roussy, priority 2019, dated 2022).

Legend:
HCT116 cells = experiment: Screening of chemical libraries for IR-mediated cellular cannibalism (imaging flow cytometry, confocal validation); assay type: cell-based, human; settings: 8 Gy irradiated HCT116 cells, 10 μM compound, 24 h culture
Protocol: FIG. 4 Identification of cannibalism modulators triggered by ionizing radiation. Compounds from the Prestwick (A) and CEA (F) libraries were tested for their capacities to induce cellular cannibalism after ionizing radiation. Cannibal cells were detected after homotypic cultures of 8 gray γ-irradiation HCT116 cells in the presence or absence of 10 μM of the Prestwick (A) and CEA […] library compounds. Each dot represents one compound. Representative images are shown in (B, G). (C, H) HCT116 cells were treated with the indicated drugs. After 24 h of treatment, cell death was monitored by staining with 3,3 dihexyloxacarbocyanine iodide (DiOC6(3)) and PI^+, and the percentage of dying (DiOC6(3)^low PI^−, open bars) and dead (DiOC6(3)^low PI^+, closed bars) cells was determined by cytofluorometry. Validation of the cannibalism inducers by fluorescent microscopy. Representative images (D, I) and quantification (E, J) are shown. Results are means s.e.m. of triplicate determinations.
Untreated HCT116 cells were labeled with CMFDA (green fluorescence, CMFDA^+) or CMTMR, (red fluorescence, CMTMR) and treated HCT116 cells with CMFDA (green fluorescence, CMFDA^+). The following cell mixtures were performed: untreated CMTMR^+ HCT116 cells were mixed with untreated CMFDA^+ HCT116 cells, or untreated CMTMR^+ HCT116 cells were mixed with treated CMFDA^+ HCT116 cells. Then, cells were co-cultured during 24 hours in the presence or absence of the pharmacological inhibitor of ROCK, Y27632 (30 μM), the pan-caspase inhibitor, Z-VAD-fmk (ZVAD, 100 μM), the inhibitor of caspase-1, Ac-YVAD-cmk (YVAD, 100 μM), the necroptosis inhibitor, Necrostatin-1 (NEC1, 30 μM), the inhibitor of the vacuolar type H(+)-ATPase (V-ATPase) inhibiting autophagy, Bafilomycin A1 (BafA1, 50 nM), the inhibitor of Cdks with an anti-mitotic activity, Roscovitine (Rosco, 10 μM). After 24 hours of co-culture, both detached and adherent cells were collected and stained with Hoechst […] (10 μg/mL) during 1 hour at 37° C. in warmed complete medium. To detect phosphatidylserine (PS) exposure and plasma membrane permeability, labeled HCT116 cells were successively incubated with Biotin-AnnexinV (BD Pharmingen) as recommended by manufacturer, […] BV786-Streptavidin (BD Biosciences) and 3 μM DRAQ7 (BioStatus) during 15 minutes at 25° C. After washing with PBS solution, samples were immediately analyzed using an imaging flow cytometer FlowSight® (Amnis®, part of EMD Millipore). Data were acquired at a 20× magnification, using INSPIRE software. The 405 nm, 488 nm, and 561 nm lasers were used for excitation. Brightfield, Annexin V-BV786, DRAQ7, CMFDA, CMTMR and Hoechst […] stainings were detected using respectively channels for 420-480 nm, 745-800 nm, 642-745 nm, 480-560 nm, 595-642 nm and 430-505 nm. At least 1000 events of cells per sample were analyzed. Additional single-labeled controls were prepared to normalize fluorescent signal across different channels. Acquired data were analyzed using the IDEAS analysis software (v6.1; Merck-Millipore). Gating strategy was the following. Cells were gated for focused cells using the Gradient RMS feature. Cells were gated for single cells using the aspect ratio and area features. For the cannibalism detection, cells were gated in the double positive CMFDA^+ and CMTMR^+ staining.
To detect PS exposure, plasma membrane permeability and cell cycle progression, cells were after co-culture sequentially labeled with specific fluorescent probes (such as FITC-conjugated AnnexinV, propidium iodide, and Hoechst 33342) and analyzed by flow cytometry. Both detached and adherent cells were collected and stained with Hoechst […] (10 μg/ml) during 1 hour at 37° C. in warmed complete medium. After washing with PBS, HCT116 cells were suspended in 1× binding buffer supplemented with fluorescein isothiocyanate (FITC)-conjugated Annexin V (BD Biosciences) and propidium iodide (PI, 1 μg/mL) (Sigma), as per manufacturer's instructions. […]

CT26 cells = experiment: Anti-tumor vaccination assay, CT26 cells in BALB/c mice; assay type: in vivo, mouse; settings: for frequency of mice showing a protective response: 8 Gy + 10 μM compound 24 h
Protocol: FIG. 5. Identification of cannibalism modulators as immunogenic cell death inducers. MCA205 (A) or CT26 (E, I, M, Q) cells were treated with the indicated drugs. After 24 h of coculture with the indicated treatment, cell death was monitored by staining DiOC6(3) and PI, and the percentage of dying (DiOC6(3)^low PI^−, open bars) and dead (DiOC6(3)^low PI^+, closed bars) cells was determined by cytofluorometry. (B-D) MCA205 cells or (F-H, J-L, N-P, R-T) CT26 cells cocultured after x irradiation with the indicated compounds were inoculated subcutaneously into the right flank of […] or BALB/c mice, respectively. Seven days later, the mice were rechallenged with live cells injected into the opposite flank, and tumor growth was monitored (five mice per group).
FIG. 6. Tumor vaccination experiments. CT26 cells were treated for 24 hours with 10 μM VP331 (A, F, K), 10 μM Minaprine (B, G, L), 10 μM Lopa87 (C, H, M), 10 μM SG6163F (D, I, N), 10 μM Azaguanine-8 (8-aza) (E, J, O) alone or combined with 8 Gy ionizing radiation and inoculated (s.c.) into immunocompetent BALB/c mice, which were rechallenged at the opposite flank 7 days later with the same cancer cells. The percentage of tumor-free mice was evaluated three times a week for the following 38 days. Percentage of total tumor free mice (A-E), tumor free-mice at the first injection site (F to J, P) or at the second injection site (K to O, Q) are shown. (*P<0.05, **P<0.01, ***P<0.001, two-way ANOVA).
The combination of IRCCE with IR induces efficient antitumor immunity. Considering that immunogenic cell death (ICD) inducers were identified (such as Digoxin, Digitoxin, Lanatoside C or Doxorubicin hydrochloride)^3, 4, 48-51) as IRCCE, the ability of these compounds to induce an antitumor immunity after radiotherapy was evaluated. First, a preclinical approaches was developed to study the immunological effects of IRCCE on two mouse models of carcinoma (colon CT26 carcinoma and fibrosarcoma MCA205). Initially, the ability of the combination of IRCCE+IR to trigger a specific anti-tumor immune response was appreciated using immunocompetent mice through anti-tumor vaccination assays. According to previously published studies^52, the injection of cancer cells succumbing to an immunogenic cell death (ICD) into immunocompetent mice must elicit a protective immune response that is specific for tumor antigens. Thus, 3×10^5 MCA205 cells were first treated with 10 μM of SG6163F for 24 hours. Then, treated cells were inoculated subcutaneously in 200 μl PBS into the lower flank of 8-week-old female C57BL/6 mice. One week later, 3×10^4 untreated control cells were inoculated into the contralateral flank of mice. Tumors were evaluated weekly using a common caliper. Animals bearing tumors that exceeded 20-25% body mass were euthanatized. […] Then, 3×10^6 CT26 cells were irradiated with 8 Gy in presence of 10 μM of SG6163F (FIGS. 5E and 5F), VP331 (FIGS. 5I and 5J), Minaprine dihydrochloride (FIGS. 5M and 5N) or LOPA87 (FIGS. 5Q and 5R) for 24 hours. Then, cells were inoculated as previously described subcutaneously in […] into the lower flank of 8-week-old female BALB/c mice. One week later, 5×10^5 untreated control cells were inoculated into the contralateral flank of mice and tumors were evaluated weekly using a common caliper. As previously mentioned, animals bearing tumors that exceeded 20-25% body mass were euthanatized. The percentage of dying cells in each condition was evaluated by determining with DiOC(6)3/IP staining (FIGS. 5E, 5I, 5M and 5Q). Finally, the ability of these compounds to repress the growth of cancer cells that have been injected 7 days after injection of irradiated and treated cancer cells was appreciated.
A second anti-tumor vaccination assay was done on CT26 mouse models of carcinoma as previously described. […]

[1] = second assay: CT26 cells, rechallenge 7 days later
[2] = first assay: CT26 cells, rechallenge one week later

| Molecule | enhancement of IR-mediated cellular cannibalism (HCT116 cells) | protective response after injection of cancer cells (CT26 cells; second assay: CT26 cells treated with 10 μM compound alone (no IR)) | frequency of mice showing a protective response (CT26 cells; [1]) | frequency of mice showing a protective response (CT26 cells; [2]) |
| --- | --- | --- | --- | --- |
| Nc1nc2[nH]nnc2c(=O)[nH]1 [Azaguanine-8] | efficient cellular cannibalism enhancer | induce an increase of protective response | Significant increases in the frequency of mice showing a protective response | – |
| C[C@H]1O[C@@H](O[C@H]2[C@@H](O)C[C@H](O[C@H]3[C@@H](O)C[C@H](O[C@H]4CC[C@@]5(C)[C@H](CC[C@@H]6[C@@H]5CC[C@]5(C)[C@@H](C7=CC(=O)OC7)CC[C@]65O)C4)O[C@@H]3C)O[C@@H]2C)C[C@H](O)[C@@H]1O [Digitoxin] | efficient cellular cannibalism enhancer | – | – | – |
| C[C@H]1O[C@@H](O[C@H]2[C@@H](O)C[C@H](O[C@H]3[C@@H](O)C[C@H](O[C@H]4CC[C@@]5(C)[C@H](CC[C@@H]6[C@@H]5C[C@@H](O)[C@]5(C)[C@@H](C7=CC(=O)OC7)CC[C@]65O)C4)O[C@@H]3C)O[C@@H]2C)C[C@H](O)[C@@H]1O [Digoxin] | efficient cellular cannibalism enhancer | – | – | – |
| COc1cccc2c1C(=O)c1c(O)c3c(c(O)c1C2=O)C[C@@](O)(C(=O)CO)C[C@@H]3O[C@H]1C[C@H](N)[C@H](O)[C@H](C)O1.Cl [Doxorubicin hydrochloride] | efficient cellular cannibalism enhancer | – | – | – |
| CC(C(=O)O)c1ccc(-c2ccccc2)c(F)c1 (stereo not shown) [Flurbiprofen] | efficient cellular cannibalism enhancer | – | – | – |
| CN(C)c1ccc(-c2cc(=O)[nH]c(-c3ccccc3)n2)cc1 [LOPA87] | efficient cellular cannibalism enhancer | – | Significant increases in the frequency of mice showing a protective response | significant increase in the frequency of mice showing a protective response |
| CC(=O)O[C@H]1C[C@H](O[C@H]2[C@@H](O)C[C@H](O[C@H]3[C@@H](O)C[C@H](O[C@H]4CC[C@@]5(C)[C@H](CC[C@@H]6[C@@H]5C[C@@H](O)[C@]5(C)[C@@H](C7=CC(=O)OC7)CC[C@]65O)C4)O[C@@H]3C)O[C@@H]2C)O[C@H](C)[C@H]1O[C@@H]1O[C@H](CO)[C@@H](O)[C@H](O)[C@H]1O [Lanatoside C] | efficient cellular cannibalism enhancer | – | – | – |
| CN1CCc2c(c3ccccc3n2Cc2ccccc2)C1 [Mebhydroline 1,5-naphtalene-disulfonate] | efficient cellular cannibalism enhancer | – | – | – |
| COc1cc(O)ccc1/C=N/c1ccccc1C(=O)Nc1ccccc1 [RN-1-026] | efficient cellular cannibalism enhancer | – | – | – |
| CN1c2ccccc2C(=O)N(c2ccccc2)C1c1ccc(-c2csc(CO)n2)s1 (stereo not shown) [VP43] | efficient cellular cannibalism enhancer | – | – | – |
| COc1ccc(C)cc1/C=N/[C@@H]1C[C@@H]2C[C@H]([C@H]1C)C2(C)C [VP331] | efficient cellular cannibalism enhancer | – | Significant increases in the frequency of mice showing a protective response | significant increase in the frequency of mice showing a protective response |
| O=C(N/N=C/c1ncc[nH]1)NC12CC3CC(CC(C3)C1)C2 [VP450] | efficient cellular cannibalism enhancer | – | – | – |
| Myricetin | efficient cellular cannibalism enhancer | – | – | – |
